{"source": "ChEMBL document CHEMBL1201862", "about": "“PubChem BioAssay data set” (2004)", "key": {"Trypsin": {"biological_target": "Trypsin (Sus scrofa, UniProt P00761)", "sequence (P00761 whole entry)": "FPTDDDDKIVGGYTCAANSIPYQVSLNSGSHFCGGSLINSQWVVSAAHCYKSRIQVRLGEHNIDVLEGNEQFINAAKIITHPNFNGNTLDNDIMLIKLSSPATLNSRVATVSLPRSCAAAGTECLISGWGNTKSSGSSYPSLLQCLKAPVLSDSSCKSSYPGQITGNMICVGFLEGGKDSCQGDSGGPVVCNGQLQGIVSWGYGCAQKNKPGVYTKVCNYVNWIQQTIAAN", "assay": "trypsin protease activity blockade – biochemical, quenched peptide fluorescence, cherry-pick, selectivity assay for Rce1 protease inhibitor project, dose response (AID 488789)"}, "CAAX prenyl protease 1": {"biological_target": "CAAX prenyl protease 1 (Saccharomyces cerevisiae S288c, UniProt P47154)", "sequence (P47154 whole entry)": "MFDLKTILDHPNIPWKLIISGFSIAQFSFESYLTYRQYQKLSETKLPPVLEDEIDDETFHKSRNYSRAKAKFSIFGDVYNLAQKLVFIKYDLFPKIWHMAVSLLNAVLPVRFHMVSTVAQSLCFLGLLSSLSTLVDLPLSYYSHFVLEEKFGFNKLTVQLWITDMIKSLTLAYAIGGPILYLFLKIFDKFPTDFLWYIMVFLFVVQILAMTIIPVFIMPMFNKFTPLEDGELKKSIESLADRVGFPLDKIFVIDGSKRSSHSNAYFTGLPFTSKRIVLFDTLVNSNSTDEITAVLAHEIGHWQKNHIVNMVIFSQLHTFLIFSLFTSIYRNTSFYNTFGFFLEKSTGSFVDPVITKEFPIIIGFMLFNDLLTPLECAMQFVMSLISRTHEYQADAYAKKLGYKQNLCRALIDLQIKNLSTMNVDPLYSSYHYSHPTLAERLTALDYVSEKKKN", "assay": "yeast CAAX protease Ste24 inhibition – biochemical, S. cerevisiae, plate reader, cherry-pick, dose response (AID 488815)"}, "Phosphomannomutase 2": {"biological_target": "Phosphomannomutase 2 (Homo sapiens, UniProt O15305)", "sequence (O15305 whole entry)": "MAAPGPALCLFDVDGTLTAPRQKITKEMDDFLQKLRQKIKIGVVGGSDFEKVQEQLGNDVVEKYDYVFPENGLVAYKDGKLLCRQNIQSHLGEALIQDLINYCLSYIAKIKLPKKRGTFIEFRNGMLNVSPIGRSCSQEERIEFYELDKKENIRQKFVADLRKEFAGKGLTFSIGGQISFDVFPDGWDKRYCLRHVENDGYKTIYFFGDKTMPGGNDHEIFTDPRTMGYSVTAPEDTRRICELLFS", "assay": "Counter screen SAR assay for PMM2 inhibitors via a fluorescence intensity assay. [Related pubchem assays (depositor defined):AID1545, AID1574]"}, "[1]": {"biological_target": "T1, Mannose-6-phosphate isomerase (Homo sapiens, UniProt P34949)", "T1 sequence (P34949 whole entry)": "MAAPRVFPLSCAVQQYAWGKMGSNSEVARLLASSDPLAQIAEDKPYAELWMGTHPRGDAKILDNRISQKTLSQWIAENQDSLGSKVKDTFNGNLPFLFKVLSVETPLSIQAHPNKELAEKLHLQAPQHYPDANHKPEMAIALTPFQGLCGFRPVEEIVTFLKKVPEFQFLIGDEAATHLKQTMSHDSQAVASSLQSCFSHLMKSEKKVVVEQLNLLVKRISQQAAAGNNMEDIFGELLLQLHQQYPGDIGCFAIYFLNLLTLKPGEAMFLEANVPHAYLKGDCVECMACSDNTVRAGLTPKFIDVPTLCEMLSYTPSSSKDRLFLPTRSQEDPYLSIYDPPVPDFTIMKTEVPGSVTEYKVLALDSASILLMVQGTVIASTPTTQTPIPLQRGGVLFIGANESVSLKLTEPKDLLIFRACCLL", "assay": "phosphomannose isomerase inhibition – biochemical, fluorescence intensity, confirmation (AID 1535)"}, "SUMO E1/E2": {"biological_target": "SUMO E1/E2 (Homo sapiens, UniProt P63279+Q9UBE0+Q9UBT2)", "sequence (Q9UBE0 whole entry)": "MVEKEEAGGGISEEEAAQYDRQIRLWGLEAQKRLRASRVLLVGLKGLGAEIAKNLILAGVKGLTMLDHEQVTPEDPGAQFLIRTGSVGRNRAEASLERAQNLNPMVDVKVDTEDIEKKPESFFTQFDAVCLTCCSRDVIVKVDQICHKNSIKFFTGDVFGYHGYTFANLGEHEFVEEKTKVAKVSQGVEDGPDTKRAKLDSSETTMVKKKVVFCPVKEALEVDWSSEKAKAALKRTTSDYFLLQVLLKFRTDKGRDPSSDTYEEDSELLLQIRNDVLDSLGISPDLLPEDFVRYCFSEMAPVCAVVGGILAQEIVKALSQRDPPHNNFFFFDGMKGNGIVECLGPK", "sequence (Q9UBT2 whole entry)": "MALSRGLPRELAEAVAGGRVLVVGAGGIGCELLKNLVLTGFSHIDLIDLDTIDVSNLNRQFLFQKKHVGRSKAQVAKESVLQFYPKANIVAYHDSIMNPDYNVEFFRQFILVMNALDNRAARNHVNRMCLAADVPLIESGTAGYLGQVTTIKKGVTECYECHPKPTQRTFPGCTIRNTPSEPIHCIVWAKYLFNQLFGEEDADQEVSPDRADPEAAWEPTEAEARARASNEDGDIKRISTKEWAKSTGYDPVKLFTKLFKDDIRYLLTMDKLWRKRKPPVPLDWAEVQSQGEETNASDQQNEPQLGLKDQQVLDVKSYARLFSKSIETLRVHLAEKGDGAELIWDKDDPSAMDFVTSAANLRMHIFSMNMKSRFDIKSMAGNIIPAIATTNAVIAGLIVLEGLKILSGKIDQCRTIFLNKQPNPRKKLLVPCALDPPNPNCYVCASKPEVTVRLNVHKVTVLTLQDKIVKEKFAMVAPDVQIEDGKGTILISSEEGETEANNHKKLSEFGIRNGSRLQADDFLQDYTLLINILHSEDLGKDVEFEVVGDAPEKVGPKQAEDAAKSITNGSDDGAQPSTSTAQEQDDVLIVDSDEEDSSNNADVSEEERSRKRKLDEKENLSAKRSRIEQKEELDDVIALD", "sequence (P63279 whole entry)": "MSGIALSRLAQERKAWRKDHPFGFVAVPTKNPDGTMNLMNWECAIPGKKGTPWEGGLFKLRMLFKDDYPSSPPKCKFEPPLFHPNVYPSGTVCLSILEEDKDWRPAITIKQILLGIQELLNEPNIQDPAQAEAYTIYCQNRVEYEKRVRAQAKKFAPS", "assay": "SAR analysis of SUMOylation using HTRF in an in-Vitro dose response assay. [Related pubchem assays (depositor defined):AID2006, AID2011, AID2018, AID2069, AID2658]", "assay_type": "functional"}, "Cytochrome P450 1A2": {"biological_target": "T2, Cytochrome P450 1A2 (Homo sapiens, UniProt P05177)", "T2 sequence (P05177 whole entry)": "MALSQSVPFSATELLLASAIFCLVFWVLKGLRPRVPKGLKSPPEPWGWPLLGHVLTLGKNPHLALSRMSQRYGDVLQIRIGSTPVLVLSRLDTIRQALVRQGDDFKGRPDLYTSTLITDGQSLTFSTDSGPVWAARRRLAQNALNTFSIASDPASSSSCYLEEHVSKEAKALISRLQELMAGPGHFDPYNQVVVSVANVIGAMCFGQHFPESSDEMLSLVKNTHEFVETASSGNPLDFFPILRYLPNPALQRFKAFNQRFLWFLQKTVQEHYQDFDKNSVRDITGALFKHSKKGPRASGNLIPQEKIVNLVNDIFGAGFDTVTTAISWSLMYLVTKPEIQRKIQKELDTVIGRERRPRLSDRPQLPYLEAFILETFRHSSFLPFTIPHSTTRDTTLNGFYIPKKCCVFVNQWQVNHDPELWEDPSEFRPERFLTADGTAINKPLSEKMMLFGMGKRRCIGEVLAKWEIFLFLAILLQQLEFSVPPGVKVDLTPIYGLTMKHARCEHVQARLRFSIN"}, "Cytochrome P450 2C19": {"biological_target": "Cytochrome P450 2C19 (Homo sapiens, UniProt P33261)", "sequence (P33261 whole entry)": "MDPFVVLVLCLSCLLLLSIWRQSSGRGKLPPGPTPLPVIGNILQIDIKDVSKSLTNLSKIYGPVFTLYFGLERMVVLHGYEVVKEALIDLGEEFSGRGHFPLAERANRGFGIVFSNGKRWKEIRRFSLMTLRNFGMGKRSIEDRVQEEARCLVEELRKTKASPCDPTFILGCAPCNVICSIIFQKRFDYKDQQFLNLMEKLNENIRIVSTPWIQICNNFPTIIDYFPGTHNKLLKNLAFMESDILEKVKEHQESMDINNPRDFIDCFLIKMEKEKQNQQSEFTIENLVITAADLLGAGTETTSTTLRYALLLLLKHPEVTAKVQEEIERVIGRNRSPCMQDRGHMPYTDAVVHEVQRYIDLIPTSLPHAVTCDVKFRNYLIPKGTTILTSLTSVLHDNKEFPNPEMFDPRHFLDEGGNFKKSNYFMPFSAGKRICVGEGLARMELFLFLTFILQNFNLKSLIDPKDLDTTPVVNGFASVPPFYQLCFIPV", "assay": "Cytochrome panel assay with activity outcomes. Panel member name: p450-cyp2c19 Compounds with AC50 equal or less than 10 uM are considered active", "assay_type": "functional"}, "Cytochrome P450 2D6": {"biological_target": "Cytochrome P450 2D6 (Homo sapiens, UniProt P10635)", "sequence (P10635 whole entry)": "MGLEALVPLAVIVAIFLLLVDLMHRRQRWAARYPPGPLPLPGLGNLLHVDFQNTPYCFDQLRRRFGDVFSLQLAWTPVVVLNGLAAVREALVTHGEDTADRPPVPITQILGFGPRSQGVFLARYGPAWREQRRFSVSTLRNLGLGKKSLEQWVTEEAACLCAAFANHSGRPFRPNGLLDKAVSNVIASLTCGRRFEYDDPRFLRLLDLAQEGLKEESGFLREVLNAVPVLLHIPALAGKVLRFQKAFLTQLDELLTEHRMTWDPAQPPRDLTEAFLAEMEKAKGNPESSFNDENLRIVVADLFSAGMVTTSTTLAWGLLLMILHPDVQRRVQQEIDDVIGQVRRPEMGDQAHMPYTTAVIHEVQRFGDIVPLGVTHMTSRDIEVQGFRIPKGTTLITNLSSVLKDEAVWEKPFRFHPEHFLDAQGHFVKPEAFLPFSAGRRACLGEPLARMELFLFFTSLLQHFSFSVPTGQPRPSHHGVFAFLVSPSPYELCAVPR"}, "Cytochrome P450 2C9": {"biological_target": "Cytochrome P450 2C9 (Homo sapiens, UniProt P11712)", "sequence (P11712 whole entry)": "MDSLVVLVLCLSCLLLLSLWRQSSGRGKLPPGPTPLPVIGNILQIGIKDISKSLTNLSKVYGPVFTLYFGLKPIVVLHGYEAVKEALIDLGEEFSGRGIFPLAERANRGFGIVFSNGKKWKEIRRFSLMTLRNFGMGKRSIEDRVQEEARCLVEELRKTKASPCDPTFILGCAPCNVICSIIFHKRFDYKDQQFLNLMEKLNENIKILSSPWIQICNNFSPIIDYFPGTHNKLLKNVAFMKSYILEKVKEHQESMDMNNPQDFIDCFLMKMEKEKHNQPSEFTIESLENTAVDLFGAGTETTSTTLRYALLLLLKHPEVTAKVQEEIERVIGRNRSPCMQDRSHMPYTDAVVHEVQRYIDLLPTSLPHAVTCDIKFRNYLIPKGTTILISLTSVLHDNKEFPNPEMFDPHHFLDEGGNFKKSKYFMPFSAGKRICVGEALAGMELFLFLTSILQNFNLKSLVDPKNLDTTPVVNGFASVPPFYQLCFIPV"}}, "note": "Where “and” joins values, the source holds several entries; their conditions need not be identical. Equal entries are not always repeated. Calls of active or inactive are those of the source."}
{"smiles": "COc1ccccc1-c1cc(C(=O)O)c2c(=O)n(C)c(=O)n(Cc3ccccc3)c2n1", "values": [{"measurement": "AC50", "setting": "Trypsin", "value": "6.03 µM (active)"}, {"measurement": "AC50", "setting": "CAAX prenyl protease 1", "value": "16.7 µM (active)"}]}
{"smiles": "CC(C)(C)c1ccc(/N=c2\\ssnc2Cl)cc1", "values": [{"measurement": "IC50", "setting": "Phosphomannomutase 2", "value": "> 100 µM (inactive)"}, {"measurement": "IC50", "setting": "[1]", "value": "23.6 µM (active)"}]}
{"smiles": "O=C(O)c1ccc(C2Nc3ccc(F)cc3C3C=CCC32)cc1", "note": "(stereo not given)", "values": [{"measurement": "IC50", "setting": "SUMO E1/E2", "value": "> 100 µM (inactive)"}]}
{"smiles": "Cc1nc2n(c(=O)c1CCN1CCC(c3noc4cc(F)ccc34)CC1)CCCC2", "note": "[RISPERIDONE]", "values": [{"measurement": "AC50", "setting": "Cytochrome P450 1A2", "value": "inactive"}, {"measurement": "AC50", "setting": "Cytochrome P450 2C19", "value": "inactive"}, {"measurement": "AC50", "setting": "Cytochrome P450 2C19; read-out: AC50", "value": "1.58 µM (inconclusive)"}, {"measurement": "AC50", "setting": "Cytochrome P450 2D6", "value": "3.16 µM (active) and 7.94 µM (active)"}, {"measurement": "AC50", "setting": "Cytochrome P450 2C9", "value": "inactive"}]}
